These results are taken from patent US12344610B2, “APOL1 inhibitors and methods of use” (Maze Therapeutics, Inc., priority 2022, dated 2025).

Type in all cases: cell-based
The target in one assay is T1, APOL1 G2 (Homo sapiens, UniProt O14791, DEL388-389).
T1 construct: expressed in transfected cells; host or cells: HEK293 T-REx clonal line stably expressing GCaMP6f (HEK T-REx/GCaMP6f/APOL1 G2 K6.3), doxycycline induced
T1 sequence (O14791 with tags, fused parts or gaps DEL388-389): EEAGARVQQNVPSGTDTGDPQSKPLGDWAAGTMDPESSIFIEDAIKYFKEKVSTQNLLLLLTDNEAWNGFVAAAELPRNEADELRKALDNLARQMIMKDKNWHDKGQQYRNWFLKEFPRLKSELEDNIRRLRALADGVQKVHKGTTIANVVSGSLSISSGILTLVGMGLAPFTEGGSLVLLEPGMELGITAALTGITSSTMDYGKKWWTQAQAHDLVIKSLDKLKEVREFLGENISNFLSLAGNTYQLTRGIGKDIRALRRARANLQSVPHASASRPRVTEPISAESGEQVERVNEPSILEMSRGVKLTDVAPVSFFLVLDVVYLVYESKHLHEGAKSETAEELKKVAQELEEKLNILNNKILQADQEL
The assay is described as follows: APOL1-mediated calcium transport (calcium influx) assay, HEK T-REx/GCaMP6f/APOL1 G2 K6.3 cells, FLIPR TETRA. The note with it: prevention of calcium influx; geometric mean of at least 2 assay runs; † = average of a technical replicate from a single assay run. The method, boiled down: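 A HEK293 T-REx clone stably expressing GCaMP6f had APOL1 G2 induced with doxycycline (20 ng/mL solution added) for 6 h. Cells were then washed into Ca2+-free Tyrode's buffer (pH 7.4) and preincubated with compounds (duplicate 8-point) for 10 min at room temperature. Ca2+ injection to 5 mM final produced FLIPR GCaMP fluorescence, giving AC50 for influx inhibition (geometric mean, ≥2 runs).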

Assay [1] relates to HEK293 clonal cell line overexpressing APOL1 G1. Briefly: APOL1 G1 HEK293 cell rescue assay (Example B3). The note with it: Homo sapiens, HEK293, HEK293 clonal line overexpressing APOL1 G1; geometric mean of at least 2 runs; † = single run; ¥ = concentration at 50% rescue estimated (no sigmoidal curve). The procedure, abridged: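 HEK293 clonal line overexpressing APOL1 G1; EC50 is half-maximal reversal of APOL1-induced cell death. Values are the geometric mean of ≥2 runs on separate days, each run the average of duplicate wells. Where no sigmoidal curve could be fitted, the concentration giving 50% rescue was estimated.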

In assay [2] the test system is HEK293 cells overexpressing APOL1 G2. The assay is described as follows: APOL1 G2 HEK293 cell rescue assay (reversal of cell death caused by overexpression of APOL1). The settings on record: Homo sapiens, HEK293, HEK293 overexpressing APOL1 G2; geometric mean of at least 2 assay runs; † = single assay run. The procedure, abridged: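 EC50 is the half-maximal effective concentration for reversing cell death driven by APOL1 G2 overexpression in HEK293 cells. Reported as geometric mean of at least 2 runs on separate days, each run averaging duplicate wells per plate; some values from a single run.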

On to `CC(=O)N1CCCc2cc(OCCN3CCC4(CC3)C(=O)Nc3ccc(C#N)cc34)ccc21` [Compound 59, 1′-{2-[(1-acetyl-1,2,3,4-tetrahydroquinolin-6-yl)oxy]ethyl}-2-oxo-1,2-dihydrospiro[indole-3,4′-piperidine]-5-carbonitrile], for which the concentration at half-maximal activity (AC50) on APOL1 G2 was determined as 879 nM. The 50% effective concentration (EC50) in assay [1] is 422 nM; in assay [2], 213 nM.
Turning to `CNC(=O)N1Cc2ccc(OCCN3CCC4(CC3)C(=O)Nc3ccc(Cl)cc34)cc2C1` [Compound 61, 5-(2-{5-chloro-2-oxo-1,2-dihydrospiro[indole-3,4′-piperidin]-1′-yl}ethoxy)-N-methyl-2,3-dihydro-1H-isoindole-2-carboxamide], the AC50 on APOL1 G2 amounted to 686 nM. Further, the EC50 in assay [1] is 632 nM; in assay [2], 267 nM.
Consider `CN1C(=O)C2(CCN(CCOc3ccc(S(C)(=O)=O)cc3)CC2)c2ccccc21` [Compound 67, 1′-[2-(4-methanesulfonylphenoxy)ethyl]-1-methyl-1,2-dihydrospiro[indole-3,4′-piperidin]-2-one], for which, at APOL1 G2, the AC50 was 351 nM. Further, the EC50 in assay [1] is 2860 nM; in assay [2], 802 nM.
In the same order, the values of `CS(=O)(=O)c1ccc(OCCN2CCC3(CC2)C(=O)Nc2ccccc23)cc1` [Compound 73, 1′-[2-(4-methanesulfonylphenoxy)ethyl]-1,2-dihydrospiro[indole-3,4′-piperidin]-2-one] are 161 nM, 3520 nM and 527 nM.
The like results for `CS(=O)(=O)c1ccc(OCCN2CCC3(CC2)C(=O)Nc2ccc(C#N)cc23)cc1F` [Compound 74, 1′-[2-(3-fluoro-4-methanesulfonylphenoxy)ethyl]-2-oxo-1,2-dihydrospiro[indole-3,4′-piperidine]-5-carbonitrile] were, in that order, 781 nM, 471 nM and 167 nM.
The like results for `CC(=O)N1CCCc2cc(OCCN3CCC4(CC3)C(=O)Nc3ccc(Cl)cc34)cnc21` [Compound 80, 1′-{2-[(8-acetyl-5,6,7,8-tetrahydro-1,8-naphthyridin-3-yl)oxy]ethyl}-5-chloro-1,2-dihydrospiro[indole-3,4′-piperidin]-2-one] were, in that order, 375 nM, 178 nM and 65.7 nM.
With `CC(=O)N1CCCc2cc(OCCN3CCC4(CC3)C(=O)Nc3ccc(C#N)cc34)cnc21` [Compound 81, 1′-{2-[(8-acetyl-5,6,7,8-tetrahydro-1,8-naphthyridin-3-yl)oxy]ethyl}-2-oxo-1,2-dihydrospiro[indole-3,4′-piperidine]-5-carbonitrile], at APOL1 G2, the AC50 was 549 nM. Besides, the half-maximal effective concentration (EC50) in assay [1] was 948 nM; in assay [2], 280 nM.
In the same order, the values of `CN1C(=O)C(C)(C)c2cc(OCCN3CCC4(CC3)C(=O)Nc3ccc(C#N)cc34)ccc21` [Compound 83, 2-oxo-1′-{2-[(1,3,3-trimethyl-2-oxo-2,3-dihydro-1H-indol-5-yl)oxy]ethyl}-1,2-dihydrospiro[indole-3,4′-piperidine]-5-carbonitrile] are 718 nM, 788 nM and 247 nM.
In the same order, the values of `O=C1NCC2c3ccc(OCCN4CCC5(CC4)C(=O)Nc4ccc(Cl)cc45)cc3CCN12` (stereo not drawn) [Compound 115, 5-chloro-1′-[2-({3-oxo-1H,2H,3H,5H,6H,10bH-imidazo[4,3-a]isoquinolin-8-yl}oxy)ethyl]-1,2-dihydrospiro[indole-3,4′-piperidin]-2-one] are 472 nM, 199 nM and 94.9 nM.
Consider `N#Cc1ccc2c(c1)C1(CCN(CCOc3ccc4c(c3)CCN3C(=O)NCC43)CC1)C(=O)N2` (stereo not drawn) [Compound 118, 2-oxo-1′-[2-({3-oxo-1H,2H,3H,5H,6H,10bH-imidazo[4,3-a]isoquinolin-8-yl}oxy)ethyl]-1,2-dihydrospiro[indole-3,4′-piperidine]-5-carbonitrile], for which the AC50 at APOL1 G2 stood at 1040 nM. In addition, the EC50 in assay [1] was about 2100 nM; in assay [2], 431 nM.
The like results for `O=C1CCC2c3ccc(OCCN4CCC5(CC4)C(=O)Nc4ccc(Cl)cc45)cc3CCN12` (stereo not drawn) [Compound 121, 5-chloro-1′-[2-({3-oxo-1H,2H,3H,5H,6H,10bH-pyrrolo[2,1-a]isoquinolin-8-yl}oxy)ethyl]-1,2-dihydrospiro[indole-3,4′-piperidin]-2-one] were, in that order, 508 nM, 249 nM and 81.2 nM.
In the case of `N#Cc1ccc2c(c1)C1(CCN(CCOc3ccc4c(c3)CCN3C(=O)CCC43)CC1)C(=O)N2` (stereo not drawn) [Compound 124, 2-oxo-1′-[2-({3-oxo-1H,2H,3H,5H,6H,10bH-pyrrolo[2,1-a]isoquinolin-8-yl}oxy)ethyl]-1,2-dihydrospiro[indole-3,4′-piperidine]-5-carbonitrile], at APOL1 G2, the AC50 was found to be 727 nM. Also, the EC50 in assay [1] is 920 nM; in assay [2], 297 nM.
In the same order, the values of `Cc1cc(OCCN2CCC3(CC2)C(=O)Nc2ccc(C#N)cc23)cc(C)c1S(C)(=O)=O` [Compound 130, 1′-[2-(4-methanesulfonyl-3,5-dimethylphenoxy)ethyl]-2-oxo-1,2-dihydrospiro[indole-3,4′-piperidine]-5-carbonitrile] are 525 nM, 253 nM and 92.3 nM.
Turning to `CC(c1ccc(OCCN2CCC3(CC2)C(=O)Nc2ccc(C#N)cc23)cc1)S(C)(=O)=O` (stereo not drawn) [Compound 133, 1′-{2-[4-(1-methanesulfonylethyl)phenoxy]ethyl}-2-oxo-1,2-dihydrospiro[indole-3,4′-piperidine]-5-carbonitrile], the AC50 on APOL1 G2 was 671 nM. For the same compound, the EC50 is 885 nM in assay [1] and 203 nM in assay [2].
For `CC(c1c(F)cc(OCCN2CCC3(CC2)C(=O)Nc2ccc(Cl)cc23)cc1F)S(C)(=O)=O` (stereo not drawn) [Compound 141, 5-chloro-1′-{2-[3,5-difluoro-4-(1-methanesulfonylethyl)phenoxy]ethyl}-1,2-dihydrospiro[indole-3,4′-piperidin]-2-one], the half-maximal activity concentration (AC50) at APOL1 G2 is 954 nM. Moreover, the half-maximal effective concentration (EC50) in assay [1] was 204 nM; in assay [2], 48 nM.
For the compound `CS(=O)(=O)c1ccc(OCCN2CCC3(CC2)C(=O)N(CCO)c2ccc(C#N)cc23)cc1C(F)(F)F` [Compound 159, 1-(2-hydroxyethyl)-1′-{2-[4-methanesulfonyl-3-(trifluoromethyl)phenoxy]ethyl}-2-oxo-1,2-dihydrospiro[indole-3,4′-piperidine]-5-carbonitrile], at APOL1 G2, the AC50 was 1010 nM. The EC50 is 588 nM in assay [1] and 168 nM in assay [2].
The like results for `N#Cc1ccc2c(c1)C1(CCN(CCOc3ccc4c(c3)CNC4=O)CC1)C(=O)N2` [Compound 170, 2-oxo-1′-{2-[(1-oxo-2,3-dihydro-1H-isoindol-5-yl)oxy]ethyl}-1,2-dihydrospiro[indole-3,4′-piperidine]-5-carbonitrile] were, in that order, 1310 nM, about 2300 nM and 803 nM.
`O=C1NCc2cc(OCCN3CCC4(CC3)C(=O)Nc3ccc(Cl)cc34)ccc21` [Compound 171, 5-chloro-1′-{2-[(1-oxo-2,3-dihydro-1H-isoindol-5-yl)oxy]ethyl}-1,2-dihydrospiro[indole-3,4′-piperidin]-2-one]: the AC50 on APOL1 G2 was 598 nM. The half-maximal effective concentration (EC50) in assay [1] is 228 nM; in assay [2], 100 nM.
In the same order, the values of `CC1(Oc2ncc(OCCN3CCC4(CC3)C(=O)Nc3ccc(C#N)cc34)cn2)COC1` [Compound 173, 1′-[2-({2-[(3-methyloxetan-3-yl)oxy]pyrimidin-5-yl}oxy)ethyl]-2-oxo-1,2-dihydrospiro[indole-3,4′-piperidine]-5-carbonitrile] are 908 nM, 1160 nM and 289 nM.
For `O=C1Nc2ccc(Cl)cc2C12CCN(CCOc1ccc(C3CCCS3(=O)=O)cc1)CC2` (stereo not drawn) [Compound 175, 2-[4-(2-{5-chloro-2-oxo-1,2-dihydrospiro[indole-3,4′-piperidin]-1′-yl}ethoxy)phenyl]-1λ^6-thiolane-1,1-dione], on APOL1 G2, the half-maximal activity concentration (AC50) was 381 nM. Further, the results for the concentration for a half-maximal effect (EC50) in assay [1] and in assay [2] were 153 nM and 63.1 nM, respectively.
Regarding `N#Cc1ccc2c(c1)C1(CCN(CCOc3ccc(C4CCCS4(=O)=O)cc3)CC1)C(=O)N2` (stereo not drawn) [Compound 178, 1′-{2-[4-(1,1-dioxo-1λ^6-thiolan-2-yl)phenoxy]ethyl}-2-oxo-1,2-dihydrospiro[indole-3,4′-piperidine]-5-carbonitrile], the half-maximal activity concentration (AC50) on APOL1 G2 is 550 nM. Also, the EC50 is 1190 nM in assay [1] and 256 nM in assay [2].
